Data as given in US9643985B2, “PCL compounds, compositions, and methods of use thereof” (The Board Of Trustees Of The University Of Illinois, priority 2013, dated 2017).
Read-outs that look alike come from different tables or passages of the source.

Tests used:
[1] = Yield of D-Luciferin (A385) after treatment with H2O2
Text: (§1) The environment inside most cellular compartments is “reducing”—a status heavily dependent on the multiple antioxidant systems that rapidly detoxify oxidants in cells such as thioredoxins and glutathione/glutathione reductase redox systems and catalase. A viable biosensor for an oxidant inside of cells and tissue should detect its target in the presence of these and other ubiquitous milieu components.
(§2) Data were normalized to bioluminescence obtained from an identical treatment of authentic D-Luciferin (5 μM). […] In all cases, spectral contributions from oxidants were subtracted via a parallel blank experiment containing no PCL-1.

[2] = Yield of D-Luciferin (A385) after treatment with peroxynitrite (bolus or SIN-1 derived); conditions: for Maximum Yield Luciferin(%): 5 μM PCL-1 in TBS, pH 8.5, 37° C., 90 minutes, A385
Text: Where applicable, spectral contributions from oxidants were subtracted via a parallel blank experiment containing no PCL-1.
as §1, §2

[3] = Rate constant of reaction with H2O2; conditions: 100 mM sodium phosphate, pH 7.4, 37° C. (Table 3)
[4] = Rate constant of reaction with peroxynitrite, stopped-flow spectroscopy; conditions: 100 mM sodium phosphate, pH 7.4, 37° C. (Table 3)
[5] = system: mouse bone marrow-derived macrophages (BMDM); test: Detection of iNOS-derived peroxynitrite in LPS-stimulated macrophages; format: cell-based
Method: Bone marrow derived macrophages were prepared using 10% L929 cell (ATCC) supernatant in RPMI medium (Cellgro) made complete with 10% FBS, penicillin, streptomycin, and glutamine (Gibco). Cells were cultured 4-6 days prior to plating for experiments in opaque, white microtiter plates (Falcon) for analysis on a Wallac Victor2 luminometer (PerkinElmer).
In order to validate the utility of PCL-1 to detect peroxynitrite in cells, mouse bone marrow-derived macrophages (BMDM) were stimulated with 50 ng/mL bacterial LPS (lipopolysaccharide) for 22 hours, 5 μM PCL-1 was added for an additional 2 hours, then D-Luciferin generated was quantified over the course of 2 hours by addition of […] recombinant luciferase, according to Example 1.

C57BL/6 mice irradiated = test: Irradiated mouse model, fecal PCL-1/luciferin marker by LC-MS/MS; format: in vivo
Method: (§3) C57BL/6 mice were irradiated at a high lethal dose of 13Gy or at a LD70/30 of 8.1Gy in independent experiments using a Cs^137 source. PCL-1 was administered via oral gavage at 40 or 60 μM/animal, 0.2 mL volume per animal. Fecal samples were collected […] from the irradiated and non-irradiated mice at different time points (pre-dose, 4, 6 and 8 hr post-dose) prior to irradiation and also on days 1, 5 and 7 post-irradiation from all animals. PCL-1 and cleaved PCL-1 (luciferin) levels were measured in the feces using LC-MS/MS method.

[6] = Safety of PCL-1 in mice, oral gavage; format: in vivo; conditions: 40 to 250 μM per animal via oral gavage
[7] = Maximum fecal concentrations after oral administration of PCL-1; format: in vivo, mice; conditions: up to a 6.25 fold increase in dose
Method: as §3
Additionally with up to a 6.25 fold increase in dose a directly proportional fold increase in marker detected was not observed.

[8] = Reactivity of PCL-1 towards other oxidants
[9] = Total bioluminescence after minimal SIN-1 or H2O2 (FIG. 1); conditions: 60 minutes at 37° C.
Method: Recombinant luciferase was added to the reaction mixture and bioluminescence was detected at 612 nm for 60 minutes. D-Luciferin (5 μM) was used as a determinant of maximum yield.

[10] = rate constant of the competing milieu component with peroxynitrite; cited from earlier work

With `O=C(O)[C@H]1CSC(c2nc3ccc(OCc4ccc(B(O)O)cc4)cc3s2)=N1` [PCL-1] the “Maximum Yield Luciferin(%)” value ([1]; H2O2 (100 μM) added to 5 μM PCL-1 in TBS, pH 8.5, 37° C., 90 minutes, A385 normalized to authentic D-luciferin) was 97%, the yield luciferin ([1]; H2O2 as oxidant, with added BSA) was 7.38±1.39% and the “H2O2-mediated conversion to luciferin” value ([1]; in the presence of GSH, albumin or catalase) was “negligible”. The “conversion to luciferin by H2O2” value ([1]; in vitro, in the absence of GSH, albumin, or catalase) was “quantitatively converted to luciferin”, the D-luciferin obtained ([2]; SIN-1, in the presence of BSA) was 45.49% and the “effect of GSH, albumin or catalase on peroxynitrite reactivity” value ([2]; at the tested concentrations) was no more than 10%. For the same compound, the “Maximum Yield Luciferin(%)” value ([2]; peroxynitrite bolus (10 μM)) was 95%, the “Maximum Yield Luciferin(%)” value ([2]; peroxynitrite from SIN-1 (100 μM)) was 96% and the “yield of D-Luciferin” value ([2]; peroxynitrite, in the presence of 66.5 mg/mL BSA (1.0 mM)) was 87.5±7.48%. For the same compound, the kH2O2 [3] was 1.2 (±0.3) M^−1s^−1, the “kONOO−” value [4] was 9.8 (±0.1) × 10^5 M^−1s^−1 and the D-Luciferin signal ([5]; BMDMs from iNOS^−/− animals, LPS) was “no signal above baseline”. The “D-Luciferin production over the baseline value” ([5]; wild-type macrophages, LPS 50 ng/mL, 5 μM PCL-1) was “nearly two-fold increase”, the “increase in PCL-1 and % cleaved PCL-1 levels in the feces” value (C57BL/6 mice irradiated; 8.1Gy irradiation, until day 7) was “two-fold or more increase” and the “increase in the level of the marker in fecal samples vs control” value (C57BL/6 mice irradiated; 13Gy, days 5 to 7, PCL-1 oral gavage) was “about 3 fold”. The signs of toxicity [6] was “no signs of toxicity were observed”, the “dose dependence of fecal detection” value [7] was “not dose dependent” and the “sensitivity towards NO, superoxide radical anion, HOCl, and singlet oxygen” value [8] was “insensitive”.

In the case of `O=C(O)[C@H]1CSC(c2nc3ccc(OCc4ccc(B(O)O)c(F)c4)cc3s2)=N1` [PCL-F, (S)-2-(6-(4-borono-3-fluorobenzyloxy)benzo[d]thiazol-2-yl)-4,5-dihydrothiazole-4-carboxylic acid], the “reactivity with H2O2” value ([1]; 5 μM in TBS, pH 8.5, 37° C., 100 μM H2O2, 90 minutes, compared to PCL-1) is reported as “Little reactivity”, the “glutathione concentration until which reactivity with SIN-1 was retained” value ([2]; 5 μM, 100 μM SIN-1, 90 minutes) is reported as 1 to 5 mM and the kH2O2 [3] is reported as 0.11 (±0.02) M^−1s^−1. For the same compound, the “kONOO−” value [4] was 4.5 (±0.2) × 10^5 M^−1s^−1, the resistance to hydrolysis ([9]; 5 μM, bioluminescence at 612 nm) was “resistant to hydrolysis in comparison to PCL-1” and the “selectivity in detecting peroxynitrite vs. hydrogen peroxide” value ([9]; SIN-1 (2.5 μM) or H2O2 (25 μM)) was “more selective than PCL-1”.

For `N[C@@H](CCC(=O)N[C@@H](CS)C(=O)NCC(=O)O)C(=O)O` [glutathione], the “kONOO−” value [10] is listed as 1400 M⁻¹ s⁻¹.

In the case of “bovine serum albumin: milieu component competing for oxidants”, the “kONOO−” value [10] is given as 8310 M⁻¹ s⁻¹.
